Earlier results in US20190060340A1, “NOVEL AMINOGLYCOSIDES AND USES THEREOF IN THE TREATMENT OF GENETIC DISORDERS” (Technion Research & Development Foundation Limited, priority 2007, published 2019).

Columns and labels:
stop mutations = settings: literature; cited from earlier work
[1] = available toxicity data on aminoglycosides; unit inferred; cited from earlier work

NC[C@H]1O[C@H](O[C@H]2[C@H](O)[C@@H](O[C@H]3O[C@H](CO)[C@@H](O)[C@H](N)[C@H]3O)[C@H](N)C[C@@H]2N)[C@H](N)C[C@@H]1O [tobramycin]
stop mutations suppression / read-through activity (stop mutations): do not have stop mutations suppression activity
LD50 [1]: 79 mg/kg
